Values of other authors, collected in patent US20010028878A1, “In vitro maturation of human oocytes in one day” (priority 1998, published 2001).

Test system: human oocytes
Settings: presence of insulin in the culture medium; recent research

insulin
effect on the chance for successful pregnancy: negative effect
